In patent US20250313535A1, “ALPHA 4 BETA 7 INTEGRIN MODULATORS AND USES THEREOF” (DICE MOLECULES SV, INC., priority 2022, published 2025):

Columns and labels:
α4β7 integrin = α4β7 integrin (Homo sapiens (Human), UniProt P13612+P26010); test: Integrin Adhesion Assay: Protocol 1 (MAdCAM-coated plate, RPMI-8866 cells, CellTiter GLO readout); type: cell-based; conditions: integrin adhesion assay; determined by at least one of the assays described (protocol not specified)
Outline: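 RPMI-8866 cells (2×10^6 per mL) added with compounds (1% DMSO) to MAdCAM-coated wells blocked in HEPES/NaCl buffer with 1 mM MnCl2, 0.1 mM CaCl2, 1% BSA; 1 h at 37° C, 5% CO2. After four washes, bound cells read by CellTiter GLO luminescence; % inhibition vs DMSO and control wells, 4-parameter fit.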

α4β1 integrin = α4β1 integrin (Homo sapiens (Human), UniProt P05556+P13612); test: Integrin Adhesion Assay: Protocol 2 (VCAM-coated plate, Jurkat cells, CellTiter GLO readout); type: cell-based; conditions: determined by at least one of the assays described (protocol not specified)
Sequence of α4β1 integrin (P13612 34-1032): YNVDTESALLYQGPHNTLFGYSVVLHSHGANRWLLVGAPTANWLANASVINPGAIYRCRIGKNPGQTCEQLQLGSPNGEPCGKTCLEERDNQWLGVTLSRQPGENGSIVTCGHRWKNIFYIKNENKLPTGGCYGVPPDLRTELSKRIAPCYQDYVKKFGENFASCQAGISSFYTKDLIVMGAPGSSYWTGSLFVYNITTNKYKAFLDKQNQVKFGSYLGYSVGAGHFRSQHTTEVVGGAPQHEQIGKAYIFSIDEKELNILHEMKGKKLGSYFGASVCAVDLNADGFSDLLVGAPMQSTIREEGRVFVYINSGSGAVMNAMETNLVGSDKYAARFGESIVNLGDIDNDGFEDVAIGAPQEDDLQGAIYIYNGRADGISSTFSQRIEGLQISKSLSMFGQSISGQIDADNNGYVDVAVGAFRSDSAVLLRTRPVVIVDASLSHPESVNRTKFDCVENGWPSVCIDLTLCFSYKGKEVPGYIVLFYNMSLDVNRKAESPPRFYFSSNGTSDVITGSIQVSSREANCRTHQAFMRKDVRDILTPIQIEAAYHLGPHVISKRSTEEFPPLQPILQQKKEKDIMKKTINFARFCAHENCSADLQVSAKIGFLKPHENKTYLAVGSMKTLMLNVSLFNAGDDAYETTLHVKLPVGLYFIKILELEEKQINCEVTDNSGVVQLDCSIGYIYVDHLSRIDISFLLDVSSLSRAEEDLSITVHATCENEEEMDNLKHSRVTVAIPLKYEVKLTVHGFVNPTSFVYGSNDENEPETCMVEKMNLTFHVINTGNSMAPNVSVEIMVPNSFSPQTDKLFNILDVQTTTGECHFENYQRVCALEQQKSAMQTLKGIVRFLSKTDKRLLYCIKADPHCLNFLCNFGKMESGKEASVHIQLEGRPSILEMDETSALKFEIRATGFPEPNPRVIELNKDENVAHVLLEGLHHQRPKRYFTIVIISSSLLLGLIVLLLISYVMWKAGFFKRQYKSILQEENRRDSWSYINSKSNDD
Sequence of α4β1 integrin (P05556 21-798): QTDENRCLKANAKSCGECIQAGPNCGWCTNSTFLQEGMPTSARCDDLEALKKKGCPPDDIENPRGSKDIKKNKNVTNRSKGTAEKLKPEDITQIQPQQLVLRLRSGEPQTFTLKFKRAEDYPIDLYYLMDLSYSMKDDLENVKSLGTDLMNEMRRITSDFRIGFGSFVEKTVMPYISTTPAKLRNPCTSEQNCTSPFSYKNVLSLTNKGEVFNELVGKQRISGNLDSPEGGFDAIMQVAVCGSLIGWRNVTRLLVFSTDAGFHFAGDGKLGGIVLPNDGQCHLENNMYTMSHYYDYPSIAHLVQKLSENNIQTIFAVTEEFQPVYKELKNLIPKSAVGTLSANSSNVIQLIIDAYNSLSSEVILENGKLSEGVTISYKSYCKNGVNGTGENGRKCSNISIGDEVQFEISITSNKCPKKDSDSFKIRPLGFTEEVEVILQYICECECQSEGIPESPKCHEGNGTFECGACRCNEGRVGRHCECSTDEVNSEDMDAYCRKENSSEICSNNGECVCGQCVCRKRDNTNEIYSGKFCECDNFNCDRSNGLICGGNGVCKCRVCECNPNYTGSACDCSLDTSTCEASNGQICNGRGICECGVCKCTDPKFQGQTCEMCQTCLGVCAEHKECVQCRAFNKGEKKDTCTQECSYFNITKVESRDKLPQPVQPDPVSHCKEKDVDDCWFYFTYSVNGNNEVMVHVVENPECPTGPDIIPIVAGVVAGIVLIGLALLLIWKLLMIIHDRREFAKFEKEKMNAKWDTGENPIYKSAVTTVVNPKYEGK
Procedure: α4β7 and α4β1 inhibition was evaluated in vitro using at least one of the following procedures:
Integrin Adhesion Assay: Protocol 2
VCAM (R&D Systems, 0.1 ug) was diluted in 50 μL PBS, added to each well of an opaque ELISA plate (Thermo), and incubated overnight at 4° C. Coated plates were washed once with PBS and then blocked with 200 μL of assay buffer (10 mM HEPES, 150 mM NaCl, 1 mM MnCl2, 0.1 mM CaCl2), 1% BSA) for 1 hour at 37° C. and 5% CO2. After incubation, buffer was aspirated from the plates and 50 μL of fresh assay buffer was added. Compounds were added by compounds dispenser (Tecan) and DMSO concentration was normalized to 1% across each plate. 50 μL of Jurkat cells (2×10^6 per mL) were added to each well and the plates were incubated for 1 hour at 37° C. and 5% CO2. After incubation, plates were allowed to cool to RT for 10 minutes before being washed four times in assay buffer by an automated plate washer (BioTek). After washing, 100 μL of a 1:1 mixture of assay buffer and CellTiter GLO 2.0 reagent (Promega) were added to each well. Plates were mixed for 2 minutes at 1000 rpm and then allowed to incubate an additional 10 minutes before reading out luminescence on a Tecan Spark plate reader. Raw data was converted to percent inhibition based on DMSO only and control compound wells, and curves were analyzed by 4-parameter fit within Dotmatics software.

Sequence of α4β7 integrin (P13612 34-1032): as the sequence (P13612 34-1032) above
Sequence of α4β7 integrin (P26010 20-798): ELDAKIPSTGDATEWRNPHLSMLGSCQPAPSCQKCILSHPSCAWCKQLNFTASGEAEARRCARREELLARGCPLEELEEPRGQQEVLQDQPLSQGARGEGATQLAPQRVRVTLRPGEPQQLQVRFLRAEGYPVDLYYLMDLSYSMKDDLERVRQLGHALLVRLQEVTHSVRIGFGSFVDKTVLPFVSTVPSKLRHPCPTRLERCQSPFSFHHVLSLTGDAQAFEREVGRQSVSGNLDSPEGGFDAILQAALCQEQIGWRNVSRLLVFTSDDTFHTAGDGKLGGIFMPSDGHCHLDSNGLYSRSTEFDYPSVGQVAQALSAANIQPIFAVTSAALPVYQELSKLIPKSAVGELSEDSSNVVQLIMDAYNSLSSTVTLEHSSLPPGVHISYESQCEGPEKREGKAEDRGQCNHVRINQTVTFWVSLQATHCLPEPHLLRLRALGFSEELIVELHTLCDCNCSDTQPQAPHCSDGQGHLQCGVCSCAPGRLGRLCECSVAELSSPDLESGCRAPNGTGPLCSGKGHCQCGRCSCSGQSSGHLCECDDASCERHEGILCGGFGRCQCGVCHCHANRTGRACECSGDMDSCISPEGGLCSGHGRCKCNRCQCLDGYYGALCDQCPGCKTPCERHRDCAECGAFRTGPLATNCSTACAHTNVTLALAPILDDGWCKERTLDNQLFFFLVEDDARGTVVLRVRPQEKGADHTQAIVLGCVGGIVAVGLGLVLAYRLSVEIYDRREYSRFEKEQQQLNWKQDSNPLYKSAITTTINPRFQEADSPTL

Row | SMILES | IC50 (α4β7 integrin) | IC50 (α4β1 integrin)
1 | Cn1ccc(=O)n(-c2cccc3c(C[C@H](NCc4ccc(N5CCOCC5)cc4)C(=O)O)cccc23)c1=O [Compound 70] | > 1000 nM | > 1000 nM
2 | Cn1ccc(=O)n(-c2cccc3c(C[C@H](NC(=O)C4C(C)(C)CN(CC(F)(F)F)CC4(C)C)C(=O)O)cccc23)c1=O [Compound 156] | 100 to 1000 nM | > 1000 nM
3 | Cn1ccc(=O)n(-c2cccc3c(C[C@H](NC(=O)[C@@H]4[C@@H]5CC[C@H]4CN(CC(F)(F)F)C5)C(=O)O)cccc23)c1=O [Compound 155] | > 1000 nM | > 1000 nM
4 | COCCN1CCC(C)(C(=O)N[C@@H](Cc2cccc3c(-n4c(=O)ccn(C)c4=O)cccc23)C(=O)O)CC1 [Compound 159] | 100 to 1000 nM | > 1000 nM
5 | CCN1CCC(C)(C(=O)N[C@@H](Cc2cccc3c(-n4c(=O)ccn(C)c4=O)cccc23)C(=O)O)C(F)(F)C1 (some centres unmarked) [Compound 56] | 100 to 1000 nM | > 1000 nM
6 | CN(C)CCc1cn(C)c(=O)n(-c2cccc3c(C[C@H](NC(=O)c4c(F)cccc4F)C(=O)O)cccc23)c1=O [Compound 117] | 10 to 100 nM | > 1000 nM
7 | Cn1ccc(=O)n(-c2cccc3c(C[C@H](NC(=O)[C@H]4C[C@H]5CC[C@@H](C4)N5CC(F)(F)F)C(=O)O)cccc23)c1=O [Compound 154] | > 1000 nM | > 1000 nM
8 | Cn1ccc(=O)n(-c2cccc3c(C[C@H](NC(=O)c4ccc(C(=O)NCCCCN)nc4)C(=O)O)cccc23)c1=O [Compound 24] | > 1000 nM | > 1000 nM
9 | Cn1ccc(=O)n(-c2cccc3c(C[C@H](NC(=O)C4CCN(CC(F)(F)F)CC4)C(=O)O)cccc23)c1=O [Compound 35] | > 1000 nM | > 1000 nM
10 | CNC(=O)[C@@H]1CC[C@H](c2ccccc2)N1C(=O)c1ccc2cc(C(=O)N[C@@H](Cc3cccc4c(-n5c(=O)ccn(C)c5=O)cccc34)C(=O)O)ccc2c1 [Compound 128] | 100 to 1000 nM | > 1000 nM
11 | Cn1ccc(=O)n(-c2cccc3c(C[C@H](NC(=O)C4(C)CCCCC4)C(=O)O)cccc23)c1=O [Compound 161] | 100 to 1000 nM | > 1000 nM
12 | Cn1ccc(=O)n(-c2cccc3c(C[C@H](NC(=O)C4(C)CCN(CC(F)(F)F)CC4)C(=O)O)cccc23)c1=O [Compound 18] | 10 to 100 nM | > 1000 nM
13 | Cn1ccc(=O)n(-c2cccc3c(C[C@H](NC(=O)c4c(F)cc(N(CC(F)(F)F)CC(F)(F)F)cc4F)C(=O)O)cccc23)c1=O [Compound 130] | < 10 nM | > 1000 nM
14 | Cn1ccc(=O)n(-c2cccc3c(C[C@H](NC(=O)c4c(F)ccc(NCC(F)(F)F)c4F)C(=O)O)cccc23)c1=O [Compound 120] | 10 to 100 nM | > 1000 nM
15 | Cn1ccc(=O)n(-c2cccc3c(C[C@H](NC(=O)c4c(F)cc(NS(=O)(=O)C(F)(F)F)cc4F)C(=O)O)cccc23)c1=O [Compound 8] | < 10 nM | 100 to 1000 nM
16 | Cn1ccc(=O)n(-c2cccc3c(C[C@H](NC(=O)C4(C)CCN(C(=O)C(F)F)CC4)C(=O)O)cccc23)c1=O [Compound 55] | 100 to 1000 nM | > 1000 nM
17 | Cn1ccc(=O)n(-c2cccc3c(C[C@H](NC(=O)C45CCC(C(F)(F)F)(CC4)CC5)C(=O)O)cccc23)c1=O [Compound 165] | 100 to 1000 nM | > 1000 nM
18 | Cn1ccc(=O)n(-c2cccc3c(C[C@H](NC(=O)C4(C)CCOCC4)C(=O)O)cccc23)c1=O [Compound 10] | 10 to 100 nM | 100 to 1000 nM
19 | Cn1ccc(=O)n(-c2cccc3c(C[C@H](NC(=O)C45CCC(CC4)CC5)C(=O)O)cccc23)c1=O [Compound 51] | 100 to 1000 nM | > 1000 nM
20 | CC(C)C1(C(=O)N[C@@H](Cc2cccc3c(-n4c(=O)ccn(C)c4=O)cccc23)C(=O)O)CCN(CC(F)(F)F)CC1 [Compound 153] | 10 to 100 nM | 100 to 1000 nM

Continued, values first:

Row | IC50 (α4β7 integrin) | IC50 (α4β1 integrin) | SMILES
21 | < 10 nM | > 1000 nM | O=C(N[C@@H](Cc1cccc2c(-c3nccc4ccncc34)cccc12)C(=O)O)c1c(F)cc(N2CCOC[C@@H]2CC(F)F)cc1CN1CCOCC1 [Compound 46]
22 | 100 to 1000 nM | > 1000 nM | Cn1ccc(=O)n(-c2cccc3c(C[C@H](NC(=O)c4c(F)cc(CN5CCOCC5)cc4F)C(=O)O)cccc23)c1=O [Compound 34]
23 | 10 to 100 nM | 100 to 1000 nM | Cn1ccc(=O)n(-c2cccc3c(C[C@H](NC(=O)c4c(F)ccc(OC(F)F)c4F)C(=O)O)cccc23)c1=O [Compound 31]
24 | 10 to 100 nM | > 1000 nM | O=C(N[C@@H](Cc1cccc2c(-c3cccc4ccncc34)cccc12)C(=O)O)c1c(F)cc(N2CCOC[C@@H]2C(F)(F)F)cc1CN1CCOCC1 [Compound 149]
25 | < 10 nM | 100 to 1000 nM | O=C(N[C@@H](Cc1cccc2c(-c3nccc4ccncc34)cccc12)C(=O)O)c1c(F)cc(N2CCOC[C@@H]2C(F)(F)F)cc1CN1CCOCC1 [Compound 129]
26 | 10 to 100 nM | > 1000 nM | Cn1ccc(=O)n(-c2cccc3c(C[C@H](NC(=O)c4c(F)cc(C(F)(F)F)cc4F)C(=O)O)cccc23)c1=O [Compound 26]
27 | < 10 nM | 100 to 1000 nM | Cn1ccc(=O)n(-c2cccc3c(C[C@H](NC(=O)c4c(F)cc5c(cnn5CC(F)(F)F)c4F)C(=O)O)cccc23)c1=O [Compound 126]
28 | < 10 nM | > 1000 nM | Cn1ccc(C(F)(F)F)c(-c2nccc3c(C[C@H](NC(=O)c4c(F)cc(N5CCOC[C@@H]5C(F)(F)F)cc4CN4CCC(F)(F)CC4)C(=O)O)cccc23)c1=O [Compound 226]
29 | 10 to 100 nM | > 1000 nM | O=C(N[C@@H](Cc1cccc2c(-c3nccc4ccncc34)cccc12)C(=O)O)c1c(F)cc(N2CCOC[C@@H]2CC(F)F)cc1F [Compound 39]
30 | < 10 nM | 100 to 1000 nM | O=C(N[C@@H](Cc1cccc2c(-c3cccc4ccncc34)nccc12)C(=O)O)c1c(F)cc(N2CCOC[C@@H]2C(F)(F)F)cc1CN1CCCC1 [Compound 255]
31 | < 10 nM | > 1000 nM | Cn1ccc(C(F)(F)F)c(-c2nccc3c(C[C@H](NC(=O)c4c(F)cc(N5CCOC[C@@H]5C(F)(F)F)cc4CN4CCCC4)C(=O)O)cccc23)c1=O [Compound 253]
32 | 10 to 100 nM | > 1000 nM | CN1CCN(c2cc(F)c(C(=O)N[C@@H](Cc3cccc4c(-c5c(C(F)(F)F)ccn(C)c5=O)nccc34)C(=O)O)c(F)c2)[C@@H](C(F)(F)F)C1 [Compound 249]
33 | 10 to 100 nM | 100 to 1000 nM | Cn1ccc(=O)n(-c2cccc3c(C[C@H](NC(=O)c4c(F)cncc4Cl)C(=O)O)cccc23)c1=O [Compound 110]
34 | < 10 nM | > 1000 nM | O=C(N[C@@H](Cc1cccc2c(-c3cccc4ccncc34)cccc12)C(=O)O)c1c(F)cc(N2CCOC[C@@H]2C(F)(F)F)cc1CN1CCCC1 [Compound 148]
35 | < 10 nM | > 1000 nM | Cn1ccc(=O)n(-c2cccc3c(C[C@H](NC(=O)c4c(F)cc5ncccc5c4F)C(=O)O)cccc23)c1=O [Compound 133]
36 | < 10 nM | 100 to 1000 nM | Cn1ccc(=O)n(-c2cccc3c(C[C@H](NC(=O)c4c(F)cccc4CN4CCOCC4)C(=O)O)cccc23)c1=O [Compound 167]
37 | 10 to 100 nM | > 1000 nM | Cn1ccc(C(F)(F)F)c(-c2nccc3c(C[C@H](NC(=O)c4c(Cl)cc(N5CCOC[C@@H]5C(F)(F)F)cc4CN4CCC(F)(F)CC4)C(=O)O)cccc23)c1=O [Compound 224]
